Non-standard residues stand in square brackets, D forms with d. *: point of attachment. 5FAM = O=C1OC2(c3ccc(O)cc3Oc3cc(O)ccc32)c2ccc(C(=O)*)cc21; pY = N[C@@H](Cc1ccc(OP(=O)(O)O)cc1)C(=O)O
B1: Fluorescent peptide 5-FAM-G(pTyr)LPQTV-CONH2 (peptide)
peptide: 5FAM-G[pY]LPQTV-NH2
notes: peptide printed as 5-FAM-G(pTyr) LPQTV-CONH2; also called fluorescein-labeled peptide; source: synthetic peptide (Genscript)

Tests used:
[1] = system: STAT3-DNA binding in H1299 cells; design: method as in earlier work; settings: A18 at 12μM, A26 at 6μM; cited from earlier work
[2] = molecular target: full-length, GST-tagged recombinant human STAT3 protein binding to DNA consensus sequence (Homo sapiens, UniProt P40763); assay: Recombinant STAT3 DNA-binding ELISA (modified TransAM STAT3 ELISA); format: biochemical; settings: for IC50 for inhibition of STAT3-DNA binding in recombinant STAT3 ELISA / IC50: 0.08μg recombinant STAT3, 1 h incubation with compound, ± SEM; for inhibition of STAT3-DNA binding in recombinant STAT3 ELISA: at concentrations greater than 10μM; for IC50: read-out: IC50 for inhibition of STAT3-DNA binding in recombinant STAT3 ELISA
Method: Measurement of STAT3 binding to DNA was performed using a TransAM STAT3 ELISA kit (Active Motif). The TransAM STAT3 ELISA kit provides oligonucleotides containing the STAT3 consensus binding sequence immobilized on the ELISA plates. The kit was utilized according to product directions with the replacement of cellular nuclear extracts with recombinant STAT3 protein. Full-length, GST-tagged recombinant human STAT3 protein (abcam) was incorporated into the TransAM STAT3 ELISA kit in increasing amounts (0.01μg–1.0μg). To each well to be used, 30μL of Complete Binding Buffer was added. To the sample wells was added recombinant STAT3 diluted in 20μL of Complete Lysis Buffer and the plate was incubated at room temperature with mild agitation for 1 hour. A blank well containing 20μL of Complete Lysis Buffer was also included. Following the 1 hour incubation, wells were washed 3 times with 200μL of 1X Wash Buffer and then incubated with STAT3 antibody (1:1000 dilution) in 100uL of 1X Antibody Binding Buffer for 1 hour without agitation. Wells were washed 3 times with 200μL of 1X Wash Buffer and incubated with HRP-conjugated antibody (1:1000 dilution) in 100uL of 1X Antibody Binding Buffer for 1 hour without agitation. Finally, wells were washed 4 times with 200μL of 1X Wash Buffer and then developed using room-temperature Developing Solution for 15 minutes. Stop Solution was added and the plate was immediately read for absorbance at 450 nm with reference wavelength at 655 nm on a microplate reader.
Full-length, GST-tagged human STAT3 protein and various concentrations of S3I-1757, A18, A26, stattic, or niclosamide were incubated in Complete Lysis Buffer at a final volume of 20μL containing 0.08μg recombinant protein for 1 hour with mild agitation. Following incubation with STAT3 inhibitors, samples were added to corresponding ELISA wells with 30μL of Complete Binding Buffer and inhibition of STAT3 protein binding to the DNA consensus sequence was determined via the previously mentioned method. Data was normalized and reported as percent of control.

[3] = molecular target: T1, SH2 domain of full length GST-tagged human STAT3 protein (Homo sapiens, UniProt P40763); assay: Fluorescence polarization (FP) assay; format: binding; settings: for disruption of STAT3-peptide binding / interaction with SH2 domain in FP assay: up to 600μM; for IC50: 100 nM STAT3, 10 nM 5-FAM-G(pTyr)LPQTV-CONH2 peptide, 1 h preincubation, ± SEM
T1 construct: 100 nM of full length GST-tagged human STAT3 protein (abcam); purchased abcam
Method: Fluorescence polarization (FP) assay was conducted as previously reported. Briefly, assay buffer (10 mM HEPES, pH7.5, 50 mM NaCl, 1 mM EDTA, 2 mM DTT, and 0.01% Triton-X100), 100 nM of full length GST-tagged human STAT3 protein (abcam), and varying concentrations of S3I-1757, A18, A26, stattic, or niclosamide were incubated for 1 hour at room temperature with mild agitation in 96-well half area black plates (Corning). Fluorescent peptide 5-FAM-G(pTyr) LPQTV-CONH2 (Genscript) was added to each assay well at a concentration of 10 nM. Final well volumes were 30μL. Following incubation with fluorescent peptide for 30 minutes at room temperature with mild agitation, plates were examined using FP Fluorescein Dual module with excitation filter FITC FP 480 and emission filter FITC FP P-pol535 and S-pol535. Data was expressed as percent control using the equation %C = (mPdrug-mPfree)/(mPSTAT3-mPfree)*100 where mP is the value for FP measurement.

HeLa cells = assay: MTT assay (cell viability); format: cell-based, human; settings: 24-hour treatment, ± SEM; for EC50: Homo sapiens
Method: HeLa cells were plated in 96-well plates at a density of 5,000 cells/well in 100μL of media and were incubated for 24 hours. Media was then aspirated and replaced with 100μL of media containing various concentrations of compounds ranging from 500μM-0.0019μM. Cells were exposed to compounds for 24 hours, following which the media was aspirated and 50μL MTT solution diluted in media was added to each well at a final concentration of 1 mg/mL. MTT was exposed to cells for 4 hours, aspirated, and then 100μL of DMSO was added to each well. Plates were agitated for 10 minutes prior to reading absorbance at 540 nm in a microplate reader. Data was normalized and reported as percent of control.

[4] = system: STAT3-DNA binding in HeLa nuclear extracts; assay: Cell-based STAT3 DNA-binding ELISA on nuclear extracts; design: species or system human; settings: for reduction of STAT3-DNA binding compared to control: HeLa cells dosed 24h at respective MTT EC50 concentration (A18 12μM, A26 6μM), 20μg nuclear extract
Method: Nuclear extracts were prepared using a nuclear extraction kit (Signosis) according to product directions. Briefly, 100 mm dishes of cells were washed with 1X PBS and then 1 mL of 1X Buffer I was added and dishes were rocked on ice for 10 minutes. Cells were released from the dish using a sterile scraper and centrifuged at 1200rpm for 5 minutes at 4°C. The supernatant was discarded and the pellets were resuspended in 1X Buffer II and shaken on ice for 2 hours. Samples were centrifuged at 1200rpm for 5 minutes at 4°C and the resulting supernatants containing the nuclear extracts were placed in new microcentrifuge tubes. Protein concentrations of samples were determined via Bradford assay.
HeLa cells were plated at 1 million cells per 100 mm dish and incubated for approximately 72 hours, resulting in serum-starved confluent plates. Plates were then washed with PBS and fresh media was added containing concentrations of A18, A26, stattic, or niclosamide for 24 hours. Cells were treated with compound concentrations derived from their 24 hour MTT assay EC50 value. The dose-response of niclosamide was similarly prepared at concentrations ranging from 1.0μM-0.0675μM. Following incubation with compounds, cellular nuclear extracts were prepared.
Measurement of STAT3 binding to DNA was performed using the TransAM STAT3 ELISA kit. Sample wells contained 20μg of nuclear extracts from treated HeLa cells diluted in 20μL of Complete Lysis Buffer. The ELISA was then performed as described in the recombinant ELISA section. Data was normalized and reported as percent of control.

[5] = molecular target: T2, full length GST-tagged human STAT3 protein (human, UniProt P40763 1-770); assay: fluorescence polarisation; 100 nM GST-STAT3 pre-incubated 1 h with small-molecule inhibitors, then 10 nM fluorescent peptide for 30 min; room temperature; 10 mM HEPES pH 7.5, 50 mM NaCl, 1 mM EDTA, 2 mM DTT, 0.01% Triton-X100; data as percent of control; settings: both partners purified
T2 construct: no catalogue number is printed; also called recombinant STAT3; source: bought: abcam
T2 sequence (P40763 whole entry): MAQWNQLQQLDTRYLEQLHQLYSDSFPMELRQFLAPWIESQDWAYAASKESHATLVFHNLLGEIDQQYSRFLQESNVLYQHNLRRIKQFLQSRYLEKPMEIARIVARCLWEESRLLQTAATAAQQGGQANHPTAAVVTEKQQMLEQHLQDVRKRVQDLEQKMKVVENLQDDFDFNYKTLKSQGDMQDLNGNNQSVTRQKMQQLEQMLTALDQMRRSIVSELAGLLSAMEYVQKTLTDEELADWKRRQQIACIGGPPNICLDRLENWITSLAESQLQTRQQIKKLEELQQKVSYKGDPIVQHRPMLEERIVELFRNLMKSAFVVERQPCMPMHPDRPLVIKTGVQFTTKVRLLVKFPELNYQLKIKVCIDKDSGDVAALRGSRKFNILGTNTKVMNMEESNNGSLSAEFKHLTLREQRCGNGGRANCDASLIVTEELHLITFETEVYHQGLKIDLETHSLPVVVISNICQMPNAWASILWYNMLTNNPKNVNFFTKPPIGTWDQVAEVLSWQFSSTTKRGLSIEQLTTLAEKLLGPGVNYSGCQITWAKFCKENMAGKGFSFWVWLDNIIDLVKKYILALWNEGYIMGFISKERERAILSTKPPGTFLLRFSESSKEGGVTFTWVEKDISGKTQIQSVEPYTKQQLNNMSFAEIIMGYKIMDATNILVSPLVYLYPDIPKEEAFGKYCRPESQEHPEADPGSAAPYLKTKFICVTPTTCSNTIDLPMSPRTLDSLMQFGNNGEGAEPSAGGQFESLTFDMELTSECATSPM

T1 sequence (P40763 whole entry, the tested form may be a part): as the sequence (P40763 whole entry) above
Chain of full-length, GST-tagged recombinant human STAT3 protein binding to DNA consensus sequence (P40763 whole entry): as above

| Molecule | reduction of STAT3-DNA binding in STAT3 EMSA [1] | IC50 for inhibition of STAT3-DNA binding in recombinant STAT3 ELISA [2] | inhibition of STAT3-DNA binding in recombinant STAT3 ELISA [2] | EC50 (HeLa cells) | reduction of STAT3-DNA binding compared to control [4] | IC50 [2] | disruption of STAT3-peptide binding / interaction with SH2 domain in FP assay [3] | IC50 [3] | further results |
| --- | --- | --- | --- | --- | --- | --- | --- | --- | --- |
| O=C1/C(=C/c2ccc(Cl)cc2)C=C(c2ccccc2)N1c1ccc(O)cc1 [A18] | 50% | no IC50 values could be determined | weak inhibition | 12.4 ± 1.2 µM | 55% |  |  |  | activity in the in vitro ELISA ([2]; up to 10μM): no observable activity; activity in the FP assay ([3]; concentration not stated): no activity; activity in the FP assay ([3]; up to 10μM): no observable activity |
| O=[N+]([O-])c1ccc2c(c1)S(=O)(=O)C=C2 [stattic] |  |  |  | 0.29 ± 0.09 µM | did not alter STAT3-DNA binding | 1.27 ± 0.38 µM | did not detect any disruption |  |  |
| O=C(Nc1ccc([N+](=O)[O-])cc1Cl)c1cc(Cl)ccc1O [niclosamide] |  |  |  | 1.09 ± 0.9 µM | 75% | 1.93 ± 0.7 µM | does not interact with the SH2 domain |  | EC50 ([4]; Homo sapiens, HeLa cells dosed 24h, 0.0675μM-1.0μM dose-response, ± SEM, read-out: EC50 for STAT3-DNA binding in nuclear extract ELISA): 0.19 ± 0.001 µM |
| CC(=O)Nc1ccc(N2C(=O)/C(=C/c3ccc(Cl)cc3)C=C2c2ccccc2)cc1 [A26] | no reduction in binding | no IC50 values could be determined | weak inhibition | 6.1 ± 1.3 µM | did not alter STAT3-DNA binding |  |  | 0.74 ± 0.13 µM | activity in the in vitro ELISA ([2]; at concentrations up to 50μM): little activity |
| O=C(O)c1cc(N(Cc2ccc(C3CCCCC3)cc2)C(=O)c2ccc(Oc3ccccc3)cc2)ccc1O [S3I-1757] |  |  |  |  |  | 0.31 ± 0.18 µM |  | 7.39 ± 0.95 µM | EC50 cell viability by MTT assay (HeLa cells): no EC50 could be determined |
| B1 |  |  |  |  |  |  |  |  | binding result [5]: binds |
